Experimental data published in patent publication US20230085307A1, “PYRIDAZINONE COMPOUND AND HERBICIDE” (NISSAN CHEMICAL CORPORATION, priority 2019, published 2023).

Assays:
blackgrass = experiment: Test Example 4: herbicidal effect by soil treatment (Table 19, symbol J); type: in vivo, blackgrass (Alopecurus myosuroides)
How it was run: (§1)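 Pre-emergence style soil spray: seeds under ~1.5 cm sterilized diluvial soil received a uniform coat of emulsion diluted to the predetermined herbicide amount. Greenhouse 25–30° C; readout at week three on previously defined criteria.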

windgrass [1] = experiment: Test Example 5: herbicidal effect by foliage application, plastic box (Table 20, symbol L); type: in vivo, windgrass (Apera spica-venti); conditions: foliage application, 320 g/ha; for effect on windgrass (L): 3 weeks after application
How it was run: (§2)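 Plants were sown into sterilized diluvial soil under about 1.5 cm cover and kept in a greenhouse at 25° C. to 30° C. Fourteen days on, foliage received an even spray of the diluted emulsion. Herbicidal or crop effect was judged three weeks afterwards.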

lambsquarters [2] = experiment: Test Example 5: herbicidal effect by foliage application, plastic box (Table 20, symbol O); type: in vivo, lambsquarters (Chenopodium album); conditions: foliage application, 320 g/ha; for effect on lambsquarters (O): 3 weeks after application
How it was run: as §2

southern crabgrass [3] = experiment: Test Example 4: herbicidal effect by soil treatment (Table 19, symbol F); type: in vivo, southern crabgrass (Digitaria ciliaris)
How it was run: as §1

late watergrass [4] = experiment: Test Example 1: herbicidal activity, application before weed generation under submerged conditions (Table 16, symbol A); type: in vivo, late watergrass (Echinochloa oryzicola); conditions: 320 g/ha applied herbicide
How it was run: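 Alluvial soil was flooded to 4 cm depth, weed seeds were sown mixed and 2.5-leaf rice seedlings were transplanted. On sowing day, the compound's emulsion, diluted in water to a set dose, was applied to the water surface. Plants grew at 25–30 °C and were scored 0–5 after three weeks.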

Italian ryegrass [5] = experiment: Test Example 5: herbicidal effect by foliage application, plastic box (Table 20, symbol K); type: in vivo, Italian ryegrass (Lolium multiflorum); conditions: foliage application, 320 g/ha; for effect on Italian ryegrass (K): 3 weeks after application
How it was run: as §2

lambsquarters [6] = experiment: Test Example 4: herbicidal effect by soil treatment (Table 19, symbol O); type: in vivo, lambsquarters (Chenopodium album)
How it was run: as §1

Japanese bulrush = experiment: Test Example 2: herbicidal activity, application during weed generation under submerged conditions (Table 17, symbol B); type: in vivo, Japanese bulrush (Schoenoplectus juncoides); conditions: AAH 320 g/ha; application during weed generation, submerged conditions
How it was run: (§3)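 Wagner pot, alluvial soil, 4 cm flood; mixed sowing of all species; greenhouse 25° C.–30° C. Emulsifiable formulation, water-diluted to predetermined dose, applied to paddy water at 1–2 leaf stage. Effect rated at 3 wk using the earlier test's scoring criteria.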

Chinese sprangletop = experiment: Test Example 3: herbicidal effect by foliage application, Wagner pot (Table 18, symbol D); type: in vivo, chinese sprangletop (Leptochloa chinensis); conditions: 320 g/ha
How it was run: (§4)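 Plants were sown in alluvial soil held under 0.1–0.5 cm standing water and grown 14 days in a greenhouse at 25–30 °C. An emulsifiable formulation, water-diluted to the set dose, was then sprayed onto the foliage, and effects were scored three weeks later using previously defined criteria.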

late watergrass [7] = experiment: Test Example 2: herbicidal activity, application during weed generation under submerged conditions (Table 17, symbol A); type: in vivo, late watergrass (Echinochloa oryzicola); conditions: AAH 320 g/ha; application during weed generation, submerged conditions
How it was run: as §3

windgrass [8] = experiment: Test Example 4: herbicidal effect by soil treatment (Table 19, symbol L); type: in vivo, windgrass (Apera spica-venti)
How it was run: as §1

persian speedwell [9] = experiment: Test Example 4: herbicidal effect by soil treatment (Table 19, symbol R); type: in vivo, Persian speedwell (Veronica persica)
How it was run: as §1

Italian ryegrass [10] = experiment: Test Example 4: herbicidal effect by soil treatment (Table 19, symbol K); type: in vivo, Italian ryegrass (Lolium multiflorum)
How it was run: as §1

southern crabgrass [11] = experiment: Test Example 5: herbicidal effect by foliage application, plastic box (Table 20, symbol F); type: in vivo, southern crabgrass (Digitaria ciliaris); conditions: foliage application, 320 g/ha; for effect on southern crabgrass (F): 3 weeks after application
How it was run: as §2

persian speedwell [12] = experiment: Test Example 5: herbicidal effect by foliage application, plastic box (Table 20, symbol R); type: in vivo, Persian speedwell (Veronica persica); conditions: foliage application, 320 g/ha; for effect on persian speedwell (R): 3 weeks after application
How it was run: as §2

barnyard grass = experiment: Test Example 3: herbicidal effect by foliage application, Wagner pot (Table 18, symbol H); type: in vivo, barnyard grass (Echinochloa crus-galli); conditions: 320 g/ha
How it was run: as §4

velvetleaf = experiment: Test Example 4: herbicidal effect by soil treatment (Table 19, symbol M); type: in vivo, velvetleaf (Abutilon theophrasti)
How it was run: as §1

[13] = amount of applied herbicide 320 g/ha

Cc1nn(C)c(=O)c(-c2c(-c3ccc(OC4CCCC4)cc3)sc3ccc(F)cc23)c1O [2-039]
herbicidal effect rating, J: blackgrass (blackgrass; 320 g/ha): 0 (Herbicidal rate of 5% or less (almost no effect))
effect on windgrass (L) (windgrass [1]): 5 (Herbicidal rate of 90% or more (almost completely withered))
effect on lambsquarters (O) (lambsquarters [2]): 5 (Herbicidal rate of 90% or more (almost completely withered))
herbicidal effect rating, F: southern crabgrass (southern crabgrass [3]; 320 g/ha): 0 (Herbicidal rate of 5% or less (almost no effect))
Herbicidal effect on A: late watergrass (grade 0-5) (late watergrass [4]): 3 (Herbicidal rate of 40% or more and less than 70%)
effect on Italian ryegrass (K) (Italian ryegrass [5]): 1 (Herbicidal rate of 5% or more and less than 20%)
herbicidal effect rating, O: lambsquarters (lambsquarters [6]; 320 g/ha): 0 (Herbicidal rate of 5% or less (almost no effect))
herbicidal effect rating, B: Japanese bulrush (Japanese bulrush): 0 (Herbicidal rate of 5% or less (almost no effect))
herbicidal effect on D (Chinese sprangletop), rating 0-5 (Chinese sprangletop): 5 (Herbicidal rate of 90% or more (almost completely withered))
herbicidal effect rating, A: late watergrass (late watergrass [7]): 0 (Herbicidal rate of 5% or less (almost no effect))
herbicidal effect rating, L: windgrass (windgrass [8]; 320 g/ha): 0 (Herbicidal rate of 5% or less (almost no effect))
herbicidal effect rating, R: persian speedwell (persian speedwell [9]; 320 g/ha): 4 (Herbicidal rate of 70% or more and less than 90%)
herbicidal effect rating, K: Italian ryegrass (Italian ryegrass [10]; 320 g/ha): 0 (Herbicidal rate of 5% or less (almost no effect))
effect on southern crabgrass (F) (southern crabgrass [11]): 4 (Herbicidal rate of 70% or more and less than 90%)
effect on persian speedwell (R) (persian speedwell [12]): 5 (Herbicidal rate of 90% or more (almost completely withered))
herbicidal effect on H (barnyard grass), rating 0-5 (barnyard grass): 5 (Herbicidal rate of 90% or more (almost completely withered))
herbicidal effect rating, M: velvetleaf (velvetleaf; 320 g/ha): 0 (Herbicidal rate of 5% or less (almost no effect))

CCCCOc1ccc(-c2sc3ccccc3c2-c2c(O)c(C)nn(C)c2=O)cc1 [1-024]
herbicidal effect rating, J: blackgrass (blackgrass; [13]): 0 (Herbicidal rate of 5% or less (almost no effect))
herbicidal effect grade, L: windgrass (windgrass [1]; three weeks after application): 4 (Herbicidal rate of 70% or more and less than 90%)
herbicidal effect grade, O: lambsquarters (lambsquarters [2]; three weeks after application): 5 (Herbicidal rate of 90% or more (almost completely withered))
herbicidal effect rating, F: southern crabgrass (southern crabgrass [3]; [13]): 0 (Herbicidal rate of 5% or less (almost no effect))
Herbicidal effect on A: late watergrass (grade 0-5) (late watergrass [4]): 5 (Herbicidal rate of 90% or more (almost completely withered))
herbicidal effect grade, K: Italian ryegrass (Italian ryegrass [5]; three weeks after application): 4 (Herbicidal rate of 70% or more and less than 90%)
herbicidal effect rating, O: lambsquarters (lambsquarters [6]; [13]): 5 (Herbicidal rate of 90% or more (almost completely withered))
herbicidal effect rating, B: Japanese bulrush (Japanese bulrush): 4 (Herbicidal rate of 70% or more and less than 90%)
herbicidal effect on D (Chinese sprangletop), rating 0-5 (Chinese sprangletop): 4 (Herbicidal rate of 70% or more and less than 90%)
herbicidal effect rating, A: late watergrass (late watergrass [7]): 4 (Herbicidal rate of 70% or more and less than 90%)
herbicidal effect rating, L: windgrass (windgrass [8]; [13]): 0 (Herbicidal rate of 5% or less (almost no effect))
herbicidal effect rating, R: persian speedwell (persian speedwell [9]; [13]): 4 (Herbicidal rate of 70% or more and less than 90%)
herbicidal effect rating, K: Italian ryegrass (Italian ryegrass [10]; [13]): 0 (Herbicidal rate of 5% or less (almost no effect))
herbicidal effect grade, F: southern crabgrass (southern crabgrass [11]; three weeks after application): 5 (Herbicidal rate of 90% or more (almost completely withered))
herbicidal effect grade, R: persian speedwell (persian speedwell [12]; three weeks after application): 5 (Herbicidal rate of 90% or more (almost completely withered))
herbicidal effect on H (barnyard grass), rating 0-5 (barnyard grass): 5 (Herbicidal rate of 90% or more (almost completely withered))
herbicidal effect rating, M: velvetleaf (velvetleaf; [13]): 4 (Herbicidal rate of 70% or more and less than 90%)

CCCCCOc1ccc(-c2sc3ccc(F)cc3c2-c2c(OC(=O)CCC)c(C)nn(C)c2=O)cc1 [2-038]
herbicidal effect rating, J: blackgrass (blackgrass; 320 g/ha): 0 (Herbicidal rate of 5% or less (almost no effect))
effect on windgrass (L) (windgrass [1]): 0 (Herbicidal rate of 5% or less (almost no effect))
effect on lambsquarters (O) (lambsquarters [2]): 3 (Herbicidal rate of 40% or more and less than 70%)
herbicidal effect rating, F: southern crabgrass (southern crabgrass [3]; 320 g/ha): 0 (Herbicidal rate of 5% or less (almost no effect))
Herbicidal effect on A: late watergrass (grade 0-5) (late watergrass [4]): 3 (Herbicidal rate of 40% or more and less than 70%)
effect on Italian ryegrass (K) (Italian ryegrass [5]): 0 (Herbicidal rate of 5% or less (almost no effect))
herbicidal effect rating, O: lambsquarters (lambsquarters [6]; 320 g/ha): 1 (Herbicidal rate of 5% or more and less than 20%)
herbicidal effect rating, B: Japanese bulrush (Japanese bulrush): 0 (Herbicidal rate of 5% or less (almost no effect))
herbicidal effect on D (Chinese sprangletop), rating 0-5 (Chinese sprangletop): 4 (Herbicidal rate of 70% or more and less than 90%)
herbicidal effect rating, A: late watergrass (late watergrass [7]): 2 (Herbicidal rate of 20% or more and less than 40%)
herbicidal effect rating, L: windgrass (windgrass [8]; 320 g/ha): 0 (Herbicidal rate of 5% or less (almost no effect))
herbicidal effect rating, R: persian speedwell (persian speedwell [9]; 320 g/ha): 4 (Herbicidal rate of 70% or more and less than 90%)
herbicidal effect rating, K: Italian ryegrass (Italian ryegrass [10]; 320 g/ha): 0 (Herbicidal rate of 5% or less (almost no effect))
effect on southern crabgrass (F) (southern crabgrass [11]): 0 (Herbicidal rate of 5% or less (almost no effect))
effect on persian speedwell (R) (persian speedwell [12]): 5 (Herbicidal rate of 90% or more (almost completely withered))
herbicidal effect on H (barnyard grass), rating 0-5 (barnyard grass): 4 (Herbicidal rate of 70% or more and less than 90%)
herbicidal effect rating, M: velvetleaf (velvetleaf; 320 g/ha): 0 (Herbicidal rate of 5% or less (almost no effect))
